Measured values taken from patent publication US4112076A, “Epi-daunomycin and epi-adriamycin compounds and method of use” (priority 1975, dated 1978).
Values after ≈ are worked out from the molar mass of the structure shown. “Also recorded” adds a separate entry of the source. Where two headings read alike, the source gives them in different places.

Experiments:
L 1210 leukemia = assay: Ascitic leukemia L 1210, treatment i.p. on day 1; assay type: in vivo, mouse
Text: (§1) Activity of 4-demethoxy-4'-epi-adriamycin on
(§2) ascitic leukemias. Treatment i.p. on day 1.
(§3) ^a Median survival time, % over untreated controls
(§4) ^b Long term survivors at 60 days

[1] = test system: Moloney Sarcoma Virus (MSV); assay: Formation of foci by Moloney Sarcoma Virus (MSV) in vitro (antiviral action); assay type: cell-based; conditions: Fibroblast, 72 h, read-out: ID50, inhibition of MSV foci formation
Procedure: (§5) The test compound was evaluated on mouse embryo fibroblast (MEF) cultures infected with MSV and on similar uninfected cultures. After a treatment of three days the inhibiting doses (ID50) were evaluated on cell proliferation in uninfected cultures (cytotoxic action) and on MSV foci formation in infected cultures (antiviral action).
^b inhibition of MSV foci formation

[2] = test system: experimental mouse tumors; assay: Experimental mouse tumors (overall); assay type: in vivo
Procedure: (§6) The test was carried out on groups of 10 mice (Swiss CD1). The compound under examination was administered intraperitoneally in varying doses to the test animals one day after intraperitoneal inoculation with 1×10^6 tumor cells/mouse.
(§7) The above compound was tested in comparison with adriamycin in several in vitro systems and experimental mouse tumors.

Gross leukemia = assay: Gross leukemia, treatment i.v. on days 1 to 3; assay type: in vivo, mouse
Text: On Gross leukemia (which is a systemic tumor transplanted i.v.), the increase in the life span of mice treated with the two compounds at equitoxic doses was similar.
Activity of 4-demethoxy-4'-epi-adriamycin
on Gross leukemia. Treatment i.v. on days
Average data of 2 experiments^a.
^a See legends to Table 7.

P 388 leukemia = assay: Ascitic leukemia P 388, treatment i.p. on day 1; assay type: in vivo, mouse
Text: as §1, §2, §3, §4

several in vitro systems = assay: Several in vitro systems, comparison with adriamycin; assay type: cell-based; conditions: Table 6
Procedure: as §7

Hela cells = assay: Cloning efficiency of Hela cells in vitro (colony inhibition); assay type: cell-based; conditions: Homo sapiens
Procedure: After treatment for 2, 8 and 24 hours, Hela cells were seeded (200 cells per plate) and the number of colonies determined 8 days later. The inhibiting dose (ID50) represents the does which produces a 50% inhibition of colonies.
^a cloning efficiency of Hela cells

solid sarcoma 180 = assay: Solid sarcoma 180, treatment i.v. on days 1 to 5; assay type: in vivo, mouse
Text: as §1
solid sarcoma 180. Treatment i.v. on days 1 to 5.
Average data of 2 experiments.
^a Tumor weight on day 11, % over untreated controls.

[3] = Proliferation of uninfected mouse embryo fibroblast (MEF) cultures (cytotoxic action); assay type: cell-based; conditions: mouse, mouse embryo fibroblasts
Procedure: as §5
^c inhibition of mouse embryo fibroblasts proliferation

Ascites Sarcoma 180 = Ascites Sarcoma 180 in Swiss CD1 mice, i.p.; assay type: in vivo, mouse (Swiss CD1); conditions: i.p. one day after inoculation
Procedure: as §6, with “In Table 5 the activity of 3'-4'-epi-6'-hydroxyadriamycin on Ascites Sarcoma 180 in mice is reported. The test” for “The test”
The average survival time is given as percentage of the survival time of untreated animals, which is arbitrarily designated as 100%. The number of long term survivors (LTS) is also reported.

## C[C@@H]1O[C@@H](O[C@H]2C[C@](O)(C(=O)CO)Cc3c(O)c4c(c(O)c32)C(=O)c2ccccc2C4=O)C[C@H](N)[C@H]1O [4-demethoxy-4'-epi-adriamycin]
L 1210 leukemia; 0.25 mg/Kg i.p. day 1
  LTS (long term survivors at 60 days): 0/11
  T/C % (median survival time, % over untreated controls): 155%
  Toxic deaths: 0/11
L 1210 leukemia; 0.5 mg/Kg i.p. day 1
  LTS (long term survivors at 60 days): 2/11
  T/C % (median survival time, % over untreated controls): 166%
  Toxic deaths: 0/11
L 1210 leukemia; 1 mg/Kg i.p. day 1
  LTS (long term survivors at 60 days): 0/11
  T/C % (median survival time, % over untreated controls): 133%
  Toxic deaths: 11/11
L 1210 leukemia; L 1210
  antitumor activity at the optimal (non-toxic) dose vs adriamycin: comparable to that of adriamycin
[1]
  IC50: < 0.003 ng/mL
[2]; compared with adriamycin, all the systems tested
  antitumor activity: remarkable antitumor activity; also recorded: higher antitumor activity in mice, similar to adriamycin
[2]; compared with adriamycin, mice
  factor by which active doses are lower than those of adriamycin: 10 times
Gross leukemia; 0.35 mg/Kg i.v. days 1 to 3
  LTS (long term survivors): 2/20
  T/C % (median survival time, % over untreated controls): 153%
  Toxic deaths: 0/10
Gross leukemia; 0.45 mg/Kg i.v. days 1 to 3
  LTS (long term survivors): 0/20
  T/C % (median survival time, % over untreated controls): 196%
  Toxic deaths: 0/20
Gross leukemia; 0.55 mg/Kg i.v. days 1 to 3
  LTS (long term survivors): 0/10
  T/C % (median survival time, % over untreated controls): 186%
  Toxic deaths: 0/10
Gross leukemia; 0.6 mg/Kg i.v. days 1 to 3
  LTS (long term survivors): 0/10
  T/C % (median survival time, % over untreated controls): 214%
  Toxic deaths: 1/10
Gross leukemia; 0.65 mg/Kg i.v. days 1 to 3
  LTS (long term survivors): 0/10
  T/C % (median survival time, % over untreated controls): 207%
  Toxic deaths: 0/10
Gross leukemia; equitoxic doses
  increase in life span vs adriamycin: similar
P 388 leukemia; 0.25 mg/Kg i.p. day 1
  LTS (long term survivors at 60 days): 0/10
  T/C % (median survival time, % over untreated controls): 143%
  Toxic deaths: 0/10
P 388 leukemia; 0.5 mg/Kg i.p. day 1
  LTS (long term survivors at 60 days): 1/10
  T/C % (median survival time, % over untreated controls): 162%
  Toxic deaths: 1/10
P 388 leukemia; 1 mg/Kg i.p. day 1
  LTS (long term survivors at 60 days): 0/10
  T/C % (median survival time, % over untreated controls): 162%
  Toxic deaths: 8/10
P 388 leukemia; P 388
  antitumor activity at the optimal (non-toxic) dose vs adriamycin: comparable to that of adriamycin
Several in vitro systems
  in vitro activity compared with adriamycin: definitely more active than adriamycin
Hela cells; 2 (hours) treatment, Table 6, read-out: ID50, cloning efficiency of Hela cells
  IC50: 0.35 ng/mL (≈ 0.682 nM)
Hela cells; 8 (hours) treatment, Table 6, read-out: ID50, cloning efficiency of Hela cells
  IC50: 0.1 ng/mL (≈ 0.195 nM)
Hela cells; 24 (hours) treatment, Table 6, read-out: ID50, cloning efficiency of Hela cells
  IC50: 0.03 ng/mL (≈ 0.0584 nM)
Solid sarcoma 180; 0.06 mg/Kg i.v. days 1 to 5
  T/C % (tumor weight on day 11, % over untreated controls): 87.3%
  Toxic deaths: 0/10
Solid sarcoma 180; 0.12 mg/Kg i.v. days 1 to 5
  T/C % (tumor weight on day 11, % over untreated controls): 85.1%
  Toxic deaths: 2/16
Solid sarcoma 180; 0.25 mg/Kg i.v. days 1 to 5
  T/C % (tumor weight on day 11, % over untreated controls): 41.9%
  Toxic deaths: 4/19
Solid sarcoma 180; 0.5 mg/Kg i.v. days 1 to 5
  Toxic deaths: 9/9
Solid sarcoma 180; equitoxic doses
  inhibition of tumor growth on the eleventh day vs adriamycin: slightly lower than that of adriamycin
[3]
  CC50 at 72 h: < 0.003 ng/mL

## COc1cccc2c1C(=O)c1c(O)c3c(c(O)c1C2=O)C[C@@](O)(C(=O)CO)C[C@@H]3O[C@H]1C[C@H](N)[C@H](O)[C@H](C)O1 [Adriamycin, adriamycin]
L 1210 leukemia; 2.5 mg/Kg i.p. day 1
  LTS (long term survivors at 60 days): 4/11
  T/C % (median survival time, % over untreated controls): 155%
  Toxic deaths: 0/11
L 1210 leukemia; 5 mg/Kg i.p. day 1
  LTS (long term survivors at 60 days): 1/11
  T/C % (median survival time, % over untreated controls): 166%
  Toxic deaths: 1/11
L 1210 leukemia; 10 mg/Kg i.p. day 1
  LTS (long term survivors at 60 days): 3/11
  T/C % (median survival time, % over untreated controls): 155%
  Toxic deaths: 7/11
[1]
  IC50: 0.01 ng/mL (≈ 0.0184 nM)
Gross leukemia; 3.5 mg/Kg i.v. days 1 to 3
  LTS (long term survivors): 0/20
  T/C % (median survival time, % over untreated controls): 164%
  Toxic deaths: 0/20
Gross leukemia; 4.5 mg/Kg i.v. days 1 to 3
  LTS (long term survivors): 0/20
  T/C % (median survival time, % over untreated controls): 182%
  Toxic deaths: 0/20
Gross leukemia; 5.5 mg/Kg i.v. days 1 to 3
  LTS (long term survivors): 1/10
  T/C % (median survival time, % over untreated controls): 200%
  Toxic deaths: 1/10
Gross leukemia; 6 mg/Kg i.v. days 1 to 3
  LTS (long term survivors): 0/10
  T/C % (median survival time, % over untreated controls): 214%
  Toxic deaths: 3/10
P 388 leukemia; 2.5 mg/Kg i.p. day 1
  LTS (long term survivors at 60 days): 0/10
  T/C % (median survival time, % over untreated controls): 150%
  Toxic deaths: 0/10
P 388 leukemia; 5 mg/Kg i.p. day 1
  LTS (long term survivors at 60 days): 0/10
  T/C % (median survival time, % over untreated controls): 162%
  Toxic deaths: 0/10
P 388 leukemia; 10 mg/Kg i.p. day 1
  LTS (long term survivors at 60 days): 1/10
  T/C % (median survival time, % over untreated controls): 200%
  Toxic deaths: 0/10
Ascites Sarcoma 180; 4.5 ng/Kg (so in the source)
  LTS (long term survivors): 1/10
  T/C % (average survival time, % of untreated): 250%
Hela cells; read-out: ID50, cloning efficiency of Hela cells, 8 (hours) treatment, Table 6
  IC50: 28 ng/mL (≈ 51.5 nM)
Hela cells; read-out: ID50, cloning efficiency of Hela cells, 24 (hours) treatment, Table 6
  IC50: 12.5 ng/mL (≈ 23 nM)
Solid sarcoma 180; 2 mg/Kg i.v. days 1 to 5
  T/C % (tumor weight on day 11, % over untreated controls): 22.2%
  Toxic deaths: 3/19
Solid sarcoma 180; 2.5 mg/Kg i.v. days 1 to 5
  T/C % (tumor weight on day 11, % over untreated controls): 13.5%
  Toxic deaths: 11/18
[3]; 72 (hours) treatment, Table 6, read-out: ID50, inhibition of mouse embryo fibroblasts proliferation
  CC50 at 72 h: 0.026 ng/mL (≈ 0.0478 nM)

## COc1cccc2c1C(=O)c1c(O)c3c(c(O)c1C2=O)C[C@@](O)(C(=O)CO)C[C@@H]3O[C@H]1C[C@@H](N)[C@@H](O)[C@H](CO)O1 [3'-4'-epi-6'-hydroxyadriamycin, 3',4'-epi-6'-hydroxy-adriamycin]
[2]; mouse, in vivo
  activity in experimental tumors: active in experimental tumors
Ascites Sarcoma 180; 3 ng/Kg (so in the source)
  LTS (long term survivors): 1/10
  T/C % (average survival time, % of untreated): 123%
Ascites Sarcoma 180; 4.5 ng/Kg (so in the source)
  LTS (long term survivors): 2/10
  T/C % (average survival time, % of untreated): 226%
Ascites Sarcoma 180; 6.7 ng/Kg (so in the source)
  T/C % (average survival time, % of untreated): 138%
Ascites Sarcoma 180; 10.5 ng/Kg (so in the source)
  T/C % (average survival time, % of untreated): 138%
